Legend:
barnyardgrass = assay: Test B preemergence/postemergence greenhouse plant response rating 0 to 10; type: in vivo, Echinochloa crus-galli; settings: 0 to 10 scale
Outline: (§1)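 Both application timings were run together: seeds got compound preemergence, and established seedlings (two to eighteen cm) got it postemergence. Non-phytotoxic solvent carried the chemical. Ratings are visual, versus controls, at twelve to sixteen days.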

blackgrass = assay: as above; type: in vivo, Alopecurus myosuroides; settings: 0 to 10 scale
Outline: as §1

crabgrass = assay: as above; type: in vivo, Digitaria spp.; settings: 0 to 10 scale
Outline: as §1

giant foxtail = assay: as above; type: in vivo, Setaria faberii; settings: 0 to 10 scale
Outline: as §1

rape = assay: as above; type: in vivo, Brassica napus; settings: 0 to 10 scale
Outline: as §1

purple nutsedge = assay: as above; type: in vivo, Cyperus rotundus; settings: 0 to 10 scale
Outline: as §1

corn = assay: Test C preemergence/postemergence greenhouse plant response rating 0 to 100; type: in vivo, Zea mays; settings: POSTEMERGENCE; for Plant response rating, Corn: 0 to 100 scale
Outline: (§2)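 Compounds in non-phytotoxic solvent went onto sandy loam before emergence (seeded one day earlier) or onto plants at the one-to-four leaf stage. Duck salad was treated via flood water (~2.5 cm, maintained) over silt loam.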

morningglory = assay: as above; type: in vivo, Ipomoea hederacea; settings: POSTEMERGENCE; for Plant response rating, Morningglory: 0 to 100 scale
Outline: as §2

wheat = assay: as above; type: in vivo, Triticum aestivum; settings: POSTEMERGENCE; for Plant response rating, Wheat: 0 to 100 scale
Outline: as §2

wild buckwheat = assay: as above; type: in vivo, Polygonum convolvulus; settings: POSTEMERGENCE; for Plant response rating, Wild buckwheat: 0 to 100 scale
Outline: as §2

wild oat = assay: as above; type: in vivo, Avena fatua; settings: POSTEMERGENCE; for Plant response rating, Wild oat: 0 to 100 scale
Outline: as §2

rice = assay: Test C flood test plant response rating 0 to 100; type: in vivo, Oryza sativa; settings: for Plant response rating (0 to 100), Rice Japonica: under POSTEMERGENCE head (flood test species); for Plant response rating Rice Japonica: flood test species listed under POSTEMERGENCE, 0 to 100 scale
Outline: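 Compounds in non-phytotoxic solvent applied preemergence to sandy loam one day after planting, postemergence at the 1–4 leaf stage, or to ~2.5 cm floodwater over silt loam.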

Compound: CC(C)OC(=O)COc1cc(-c2nn3c(c2Cl)CCCC3)c(F)cc1Cl [Compound 39]
- Plant response rating, Barnyardgrass (barnyardgrass; POSTEMERGENCE, Rate 50 g/ha): 4
- Plant response rating, Barnyardgrass (barnyardgrass; POSTEMERGENCE, Rate 200 g/ha): 6
- Plant response rating, Barnyardgrass (barnyardgrass; PREEMERGENCE, Rate 50 g/ha): 0
- Plant response rating, Barnyardgrass (barnyardgrass; Rate 200 g/ha, PREEMERGENCE): 2
- Plant response rating, Blackgrass (blackgrass; POSTEMERGENCE, Rate 50 g/ha): 4
- Plant response rating, Blackgrass (blackgrass; POSTEMERGENCE, Rate 200 g/ha): 4
- Plant response rating, Blackgrass (blackgrass; PREEMERGENCE, Rate 50 g/ha): 0
- Plant response rating, Blackgrass (blackgrass; Rate 200 g/ha, PREEMERGENCE): 2
- Plant response rating, Crabgrass (crabgrass; POSTEMERGENCE, Rate 50 g/ha): 5
- Plant response rating, Crabgrass (crabgrass; POSTEMERGENCE, Rate 200 g/ha): 4
- Plant response rating, Crabgrass (crabgrass; PREEMERGENCE, Rate 50 g/ha): 0
- Plant response rating, Crabgrass (crabgrass; Rate 200 g/ha, PREEMERGENCE): 2
- Plant response rating, Giant foxtail (giant foxtail; POSTEMERGENCE, Rate 50 g/ha): 4
- Plant response rating, Giant foxtail (giant foxtail; PREEMERGENCE, Rate 50 g/ha): 5
- Plant response rating, Giant foxtail (giant foxtail; Rate 200 g/ha, POSTEMERGENCE): 5
- Plant response rating, Giant foxtail (giant foxtail; Rate 200 g/ha, PREEMERGENCE): 2
- Plant response rating, Rape (rape; POSTEMERGENCE, Rate 50 g/ha): 5
- Plant response rating, Rape (rape; PREEMERGENCE, Rate 50 g/ha): 8
- Plant response rating, Rape (rape; Rate 200 g/ha, POSTEMERGENCE): 10
- Plant response rating, Rape (rape; Rate 200 g/ha, PREEMERGENCE): 10
- Plant response rating, Nutsedge (purple nutsedge; POSTEMERGENCE, Rate 50 g/ha): 5
- Plant response rating, Nutsedge (purple nutsedge; PREEMERGENCE, Rate 50 g/ha): 0
- Plant response rating, Nutsedge (purple nutsedge; Rate 200 g/ha, POSTEMERGENCE): 4
- Plant response rating, Nutsedge (purple nutsedge; Rate 200 g/ha, PREEMERGENCE): 0
- Plant response rating, Corn (corn; 62 g/ha): 30
- Plant response rating, Corn (corn; 125 g/ha): 30
- Plant response rating (0 to 100), Corn (corn; Rate 16 g/ha): 20
- Plant response rating (0 to 100), Corn (corn; Rate 31 g/ha): 30
- Plant response rating, Morningglory (morningglory; 62 g/ha): 100
- Plant response rating, Morningglory (morningglory; 125 g/ha): 100
- Plant response rating (0 to 100), Morningglory (morningglory; Rate 16 g/ha): 60
- Plant response rating (0 to 100), Morningglory (morningglory; Rate 31 g/ha): 100
- Plant response rating, Wheat (wheat; 62 g/ha): 10
- Plant response rating, Wheat (wheat; 125 g/ha): 20
- Plant response rating (0 to 100), Wheat (wheat; Rate 16 g/ha): 10
- Plant response rating (0 to 100), Wheat (wheat; Rate 31 g/ha): 10
- Plant response rating, Wild buckwheat (wild buckwheat; 62 g/ha): 90
- Plant response rating, Wild buckwheat (wild buckwheat; 125 g/ha): 100
- Plant response rating (0 to 100), Wild buckwheat (wild buckwheat; Rate 31 g/ha): 70
- Plant response rating, Wild oat (wild oat; 62 g/ha): 20
- Plant response rating, Wild oat (wild oat; 125 g/ha): 30
- Plant response rating (0 to 100), Wild oat (wild oat; Rate 16 g/ha): 10
- Plant response rating (0 to 100), Wild oat (wild oat; Rate 31 g/ha): 20
- Plant response rating (0 to 100), Rice Japonica (rice; Rate 16 g/ha): 20
- Plant response rating (0 to 100), Rice Japonica (rice; Rate 31 g/ha): 30
- Plant response rating Rice Japonica (rice; 62 g/ha): 30
- Plant response rating Rice Japonica (rice; 125 g/ha): 30
